Test results reported in US11779567B2, “Method for optimizing 5-hydroxytryptamine function in the brain for therapeutic purposes” (Evecxia Therapeutics, Inc., priority 2021, dated 2023).
≈ marks a conversion by molar mass, not a printed value.

Experiments:
[1] = system: plasma cortisol; assay: Pharmacodynamics: acute increase in plasma cortisol; format: in vivo, human
Source text: Background: Compounds that acutely elevate brain 5-HTExt can activate the hypothalamic pituitary adrenal axis and induce the release of cortisol from the adrenals into the plasma (Attenburrow et al, 2001; Demisch et al, 1986; Guan et al, 2020; Kapitany et al, 1999; Lowe et al, 2006; Meltzer et al, 1983; Sargent et al, 1998). Generally large, acute increases in brain 5-HTExt are required to increase cortisol and the effect desensitizes rapidly with prolonged serotonin elevation (Mashchak et al, 1983).
Method: Total plasma cortisol levels (expressed in μg/dL) were quantified using standard immunoassay methodology. Total plasma cortisol levels were measured at multiple time points during the 24 hr infusion period of 5-HTP solution for IV infusion or placebo. Total plasma cortisol levels were measured at baseline (T=0) before the start of infusion. Blood samples were collected at T=0, and at pre-specified timepoints following initiation of infusion (2, 4, 6, 8, 10, 12, 14, 22, 24 hr). The pharmacodynamic population included subjects who received IV 5-HTP and completed the 24 h infusion or placebo and who had escitalopram levels above the lower limit of quantitation.
Statistics: Changes from baseline value were calculated for each time point using descriptive statistics (n, arithmetic mean, SD, CV). A comparison between active treatment and placebo was made for each time point and cohort using ANOVA with Dunnett's post-hoc correction of the p-value to account for multiple testing. Significance was set at p<0.05. Statistical analysis was executed using SAS software Version 9.4,

[2] = Solubility of 5-HTP; format: physicochemical; conditions: water, read-out: aqueous solubility
Procedure: The aqueous solubility of 5-HTP is approximately 10 mg/ml. However, 5-HTP has been reported to be soluble to up to about 100 mg/ml in some solvents (Jacobsen et al, 2016a). In some embodiments, the concentration of 5-HTP in the infusion solutions (i.e., the infusate fluids) is between about 1 mg/ml and about 10 mg/ml. In some embodiments, the concentration is between about 0.1 mg/ml and about 1 mg/ml. In some embodiments, the concentration is between about 10 mg/ml and about 100 mg/ml.

[3] = Dose-proportionality assessment (power model) of IV 5-HTP continuous infusion; format: in vivo, human; conditions: doses up to 3 mg/kg/24 hr
Source text: Background: The term dose proportionality denotes a proportional and linear relationship between dose and a pharmacokinetic measure, for the specific (i) dose-range, (i) dosing route, and (iii) dosing regimen investigated. More particularly, if doubling the dose doubles the pharmacokinetic measure of maximal (CMax) or total (AUC) systemic exposure to the compound administered, then dose proportionality is present, at least within the dose ranges examined. […] The relationship between dose and plasma compound concentration (C (e.g., CMax or AUC)) can be described via the following equation: C=α dose^β When β=1, dose proportionality is present. If so, C=α dose. α is a constant relating dose to C, for a given range of C and given dose units, and is identical to the slope of the regression line. In the power model (Smith et al, 2000), dose proportionality is assessed via the following linear equation: log(C)=log(α)+β×log(dose)+error Based on standard statistical methods for linear models, estimates for β together with confidence limits can be derived. […]
Methods: Applying the approach by Smith (Smith et al, 2000), using a general linear model and SAS software Version 9.4, dose proportionality of continuously administered IV 5-HTP was assessed using the data in Table 9, below. […]

solubility [2]: ~10000 µg/mL (≈ 45.4 mM)
SMILES: N[C@@H](Cc1c[nH]c2ccc(O)cc12)C(=O)O [5-HTP, 5-hydroxytryptophan]
plasma cortisol levels relative to placebo ([1]; constant flow rate 1 mg/kg/24 hr, 2 hr after start of infusion, p<0.01): significantly higher | plasma cortisol levels relative to placebo ([1]; constant flow rate 3 mg/kg/24 hr, 2 hr after start of infusion, p<0.005): significantly higher | plasma cortisol levels relative to placebo ([1]; constant flow rate 3 mg/kg/24 hr, throughout the 24 hr infusion, except at the 24 hr time point): remained significantly higher | increase of plasma cortisol levels relative to placebo ([1]; ramp flow rate 1 mg/kg/24 hr, 14 hr, trend, p=0.0751): not statistically significant | plasma cortisol levels relative to placebo ([1]; ramp flow rate 2 mg/kg/24 hr, 14 hr after start of infusion, p<0.05): significantly higher | plasma cortisol levels relative to placebo ([1]; ramp flow rate 3 mg/kg/24 hr, 14 hr after start of infusion, p<0.0001): significantly higher | dose proportionality [3]: dose proportionality for doses up to 3 mg/kg/24 hr was accepted
